The text below walks through data of patent US12054486B2, “Pyridine derivatives and their use as sodium channel activators” (Xenon Pharmaceuticals Inc., priority 2021, dated 2024).

SMILES strings stand for the structures. Where a name gives a salt, the structure may show the parent alone.

The assay concerns the target sodium channel isoforms of interest stably expressed in Human Embryonic Kidney Cells (voltage-gated sodium channel, particularly NaV1.1) (Homo sapiens, UniProt P35498). The assay can be described thus: automated planar patch clamp assay of sodium channel gating (area under the sodium current trace). The assay is classed as cell-based. The following applies: HEK cells, voltage step from −120 mV to 0 mV, increasing concentrations. The text has this:
A typical assay described in Crestey, F. et al., ACS Chem Neurosci (2015), Vol. 6, pp. 1302-1308, AA43279 (Frederiksen, K. et al., Eur J Neurosci (2017), Vol. 46, pp. 1887-1896) and Lu AE98134 (von Schoubyea, N. L. et al., Neurosci Lett (2018), Vol. 662, pp. 29-35) employs the use of automated planar patch clamp techniques to study the effects of the chemical agent on the gating of sodium channels. The sodium channel isoforms of interest are stably expressed in Human Embryonic Kidney Cells and the currents that flow through those channels in response to a depolarizing voltage clamp step from −120 mV to 0 mV are measured in the presence of increasing concentrations of the chemical agents. The area under the sodium current trace which correlates to the magnitude of sodium flux through the cell membrane is used to quantify the effects on gating of the channels. Other parameters that are measured in the assay include the peak current, time constant of open state inactivation and the voltage dependence of steady state inactivation properties. The concentration responses are used to determine potency of each chemical agents effects on modulating the sodium channel isoform gating. Such techniques are known to those skilled in the art, and may be developed, using current technologies, into low or medium throughput assays for evaluating compounds for their ability to modulate sodium channel behaviour.
As disclosed above, typical assays for testing compounds of the disclosure are known, for example as disclosed in Crestey, F. et al., ACS Chem Neurosci (2015), Vol. 6, pp. 1302-1308, AA43279 (Frederiksen, K. et al., Eur J Neurosci (2017), Vol. 46, pp. 1887-1896) and Lu AE98134 (von Schoubyea, N. L. et al., Neurosci Lett (2018), Vol. 662, pp. 29-35) which employs the use of automated planar patch clamp techniques to study the effects of the chemical agent on the gating of sodium channels. The sodium channel isoforms of interest are stably expressed in Human Embryonic Kidney Cells and the currents that flow through those channels in response to a depolarizing voltage clamp step from −120 mV to 0 mV are measured in the presence of increasing concentrations of the chemical agents. The area under the sodium current trace which correlates to the magnitude of sodium flux through the cell membrane is used to quantify the effects on gating of the channels. Other parameters that are measured in the assay include the peak current, time constant of open state inactivation and the voltage dependence of steady state inactivation properties. The concentration responses are used to determine potency of each chemical agents effects on modulating the sodium channel isoform gating.
In general terms: The patch-clamp technique gives a direct electrical read-out from membranes.
Take `c1ccc(-c2cnnc(N3CCCC3)c2-c2nc3ccccc3[nH]2)cc1` [Example 28, 2-(5-phenyl-3-(pyrrolidin-1-yl)pyridazin-4-yl)-1H-benzo[d]imidazole]: the EC50 lay within 10 to 50 µM and the “Empirical Emax” value is recorded as “++ (++ indicates a value from 2.0 up to 5.0 μM)”.

For the molecule `F[C@H]1CCN(c2nccc(-c3ccccc3)c2-c2nc3c([nH]2)CCCC3)C1` [Example 29, (S)-2-(2-(3-fluoropyrrolidin-1-yl)-4-phenylpyridin-3-yl)-4,5,6,7-tetrahydro-1H-benzo[d]imidazole], the concentration for a half-maximal effect (EC50) was less than 1 µM and the “Empirical Emax” value is reported as “++ (++ indicates a value from 2.0 up to 5.0 μM)”. For `CC(C)c1ccc(-c2nnc(-c3c(-c4ccccc4)ccnc3N3CC[C@H](F)C3)o2)cc1` [Example 30, (S)-2-(2-(3-fluoropyrrolidin-1-yl)-4-phenylpyridin-3-yl)-5-(4-isopropylphenyl)-1,3,4-oxadiazole], in that order: 1 to 10 µM and “+ (+ indicates a value less than 2.0 μM)”.

Regarding `CC(C)(C)c1ccc2nc(-c3c(-c4ccccc4)ncnc3N3CCCC3)[nH]c2c1` [Example 31, 6-(tert-butyl)-2-(4-phenyl-6-(pyrrolidin-1-yl)pyrimidin-5-yl)-1H-benzo[d]imidazole], the EC50 lay in the range of 1 to 10 µM and the “Empirical Emax” value was “+++ (+++ indicates a value from 5.0 up to 7.5 μM)”.

For the molecule `F[C@H]1CCN(c2nccc(-c3ccccc3)c2-c2nnn[nH]2)C1` [Example 32, (S)-2-(3-fluoropyrrolidin-1-yl)-4-phenyl-3-(1H-tetrazol-5-yl)pyridine], the EC50 is less than 1 µM and the “Empirical Emax” value is listed as “+ (+ indicates a value less than 2.0 μM)”.

For `Cc1nc(-c2c(-c3ccccc3)ccnc2N2CC[C@H](F)C2)[nH]c1C(F)(F)F` [Example 33, (S)-2-(3-fluoropyrrolidin-1-yl)-3-(4-methyl-5-(trifluoromethyl)-1H-imidazol-2-yl)-4-phenylpyridine], the EC50 fell in the range of 10 to 50 µM and the “Empirical Emax” value was “++ (++ indicates a value from 2.0 up to 5.0 μM)”.

With `CC(C)(C)OC(=O)N1CCc2nc(-c3c(-c4ccccc4)ccnc3N3CC[C@H](F)C3)[nH]c2C1` [Example 34, Tert-Butyl (S)-2-(2-(3-fluoropyrrolidin-1-yl)-4-phenylpyridin-3-yl)-3,4,6,7-tetrahydro-5H-imidazo[4,5-c]pyridine-5-carboxylate], the EC50 was 1 to 10 µM and the “Empirical Emax” value is given as “+++ (+++ indicates a value from 5.0 up to 7.5 μM)”.

Take `F[C@H]1CCN(c2nccc(-c3ccccc3)c2-c2nc3c([nH]2)CNCC3)C1` [Example 35, (S)-2-(2-(3-fluoropyrrolidin-1-yl)-4-phenylpyridin-3-yl)-4,5,6,7-tetrahydro-3H-imidazo[4,5-c]pyridine 2,2,2-trifluoroacetic Acid Salt (Free Acid)]: the EC50 was not below 50 µM and the “Empirical Emax” value is listed as “+ (+ indicates a value less than 2.0 μM)”. On the same counts, the results for `CN1CCc2nc(-c3c(-c4ccccc4)ccnc3N3CC[C@H](F)C3)[nH]c2C1` [Example 36, (S)-2-(2-(3-fluoropyrrolidin-1-yl)-4-phenylpyridin-3-yl)-5-methyl-4,5,6,7-tetrahydro-3H-imidazo[4,5-c]pyridine] are 10 to 50 µM and “+ (+ indicates a value less than 2.0 μM)”.

Molecule `CC(=O)N1CCc2nc(-c3c(-c4ccccc4)ccnc3N3CC[C@H](F)C3)[nH]c2C1` [Example 37, (S)-1-(2-(2-(3-fluoropyrrolidin-1-yl)-4-phenylpyridin-3-yl)-3,4,6,7-tetrahydro-5H-imidazo[4,5-c]pyridin-5-yl)ethan-1-one] displayed an EC50 of 10 to 50 µM. For `CC(C)N1CCc2nc(-c3c(-c4ccccc4)ccnc3N3CC[C@H](F)C3)[nH]c2C1` [Example 38, (S)-2-(2-(3-fluoropyrrolidin-1-yl)-4-phenylpyridin-3-yl)-5-isopropyl-4,5,6,7-tetrahydro-3H-imidazo[4,5-c]pyridine], the EC50 was not below 50 µM and the “Empirical Emax” value is “+ (+ indicates a value less than 2.0 μM)”. Regarding `F[C@H]1CCN(c2nccc(-c3ccccc3)c2-c2nc3c([nH]2)CN(C2COC2)CC3)C1` [Example 39, (S)-2-(2-(3-fluoropyrrolidin-1-yl)-4-phenylpyridin-3-yl)-5-(oxetan-3-yl)-4,5,6,7-tetrahydro-3H-imidazo[4,5-c]pyridine], the EC50 lay in the range of 10 to 50 µM and the “Empirical Emax” value is on record as “++ (++ indicates a value from 2.0 up to 5.0 μM)”. For `CCOC(=O)N1CCc2nc(-c3c(-c4ccccc4)ccnc3N3CC[C@H](F)C3)n(C(=O)OCC)c2C1` [Example 40, diethyl (S)-2-(2-(3-fluoropyrrolidin-1-yl)-4-phenylpyridin-3-yl)-6,7-dihydro-3H-imidazo[4,5-c]pyridine-3,5(4H)-dicarboxylate], in that order: 1 to 10 µM and “+++ (+++ indicates a value from 5.0 up to 7.5 μM)”.

In the case of `CC(C)C(=O)N1CCc2nc(-c3c(-c4ccccc4)ccnc3N3CC[C@H](F)C3)[nH]c2C1` [Example 41, (S)-1-(2-(2-(3-fluoropyrrolidin-1-yl)-4-phenylpyridin-3-yl)-3,4,6,7-tetrahydro-5H-imidazo[4,5-c]pyridin-5-yl)-2-methylpropan-1-one], the EC50 was not below 50 µM and the “Empirical Emax” value is “+ (+ indicates a value less than 2.0 μM)”. On the same counts, the results for `F[C@H]1CCN(c2nccc(-c3ccccc3)c2-c2nc3c([nH]2)CN(Cc2ccccc2)CC3)C1` [Example 42, (S)-5-benzyl-2-(2-(3-fluoropyrrolidin-1-yl)-4-phenylpyridin-3-yl)-4,5,6,7-tetrahydro-3H-imidazo[4,5-c]pyridine] are less than 1 µM and “++ (++ indicates a value from 2.0 up to 5.0 μM)”. For `FC1(F)CCN(c2nccc(-c3ccccc3)c2-c2nc3c([nH]2)COCC3)C1` [Example 43, 2-(2-(3,3-difluoropyrrolidin-1-yl)-4-phenylpyridin-3-yl)-3,4,6,7-tetrahydropyrano[3,4-d]imidazole], in that order: less than 1 µM and “+++ (+++ indicates a value from 5.0 up to 7.5 μM)”.

As to `c1ccc(-c2ccnc(N3CCCC3)c2-c2nc3c([nH]2)COCC3)cc1` [Example 44, 2-(4-phenyl-2-(pyrrolidin-1-yl)pyridin-3-yl)-3,4,6,7-tetrahydropyrano[3,4-d]imidazole], the EC50 lay in the range of 1 to 10 µM and the “Empirical Emax” value is given as “+++ (+++ indicates a value from 5.0 up to 7.5 μM)”.

For the molecule `FC1(F)C2CN(c3nccc(-c4ccccc4)c3-c3nc4c([nH]3)COCC4)CC21` (stereo not shown) [Example 45, 2-(2-(6,6-difluoro-3-azabicyclo[3.1.0]hexan-3-yl)-4-phenylpyridin-3-yl)-3,4,6,7-tetrahydropyrano[3,4-d]imidazole], the EC50 was less than 1 µM and the “Empirical Emax” value is reported as “+++ (+++ indicates a value from 5.0 up to 7.5 μM)”. For `N#CC1CCN(c2nccc(-c3ccccc3)c2-c2nc3c([nH]2)COCC3)C1` (stereo not shown) [Example 46], in that order: 1 to 10 µM and “+++ (+++ indicates a value from 5.0 up to 7.5 μM)”. As to `FC(F)(F)C1CCN(c2nccc(-c3ccccc3)c2-c2nc3c([nH]2)COCC3)C1` (stereo not shown) [Example 47, 2-(4-phenyl-2-(3-(trifluoromethyl)pyrrolidin-1-yl)pyridin-3-yl)-3,4,6,7-tetrahydropyrano[3,4-d]imidazole], the EC50 was 1 to 10 µM and the “Empirical Emax” value was “+++ (+++ indicates a value from 5.0 up to 7.5 μM)”.

For the molecule `F[C@@H]1CN(c2nccc(-c3ccccc3)c2-c2nc3c([nH]2)COCC3)C[C@@H]1F` [Example 48, 2-(2-((3S,4R)-3,4-difluoropyrrolidin-1-yl)-4-phenylpyridin-3-yl)-3,4,6,7-tetrahydropyrano[3,4-d]imidazole], the EC50 was 1 to 10 µM and the “Empirical Emax” value is listed as “+++ (+++ indicates a value from 5.0 up to 7.5 μM)”. On the same counts, the results for `FC1(F)CCCN(c2nccc(-c3ccccc3)c2-c2nc3c([nH]2)COCC3)C1` [Example 49, 2-(2-(3,3-difluoropiperidin-1-yl)-4-phenylpyridin-3-yl)-3,4,6,7-tetrahydropyrano[3,4-d]imidazole] are 10 to 50 µM and “++ (++ indicates a value from 2.0 up to 5.0 μM)”.

A word on the EC50: it is the concentration that produces a half-maximal response. A lower EC50 goes with a more potent agent.
